Our source for the IC50 and EC50 values is patent publication US8143244B2, “Cyclopropyl fused indolobenzazepine HCV NS5B inhibitors” (Bristol-Myers Squibb Company, priority 2009, dated 2012).

The target of assay [1] is T1, HCV NS5B (Hepatitis C virus genotype 1b, UniProt Q9WMX2).
T1 construct: The protein was expressed with an 18 amino acid C-terminal truncation to enhance the solubility; made in house; host or cells: E. coli BL21(DE3)
Description: HCV NS5B RdRp enzyme assay. The note with it: HCV NS5B RdRp genotype 1b. In kind it is biochemical. How it is done:
HCV NS5B RdRp cloning, expression, and purification. The cDNA encoding the NS5B protein of HCV, genotype 1b, was cloned into the pET21a expression vector. The protein was expressed with an 18 amino acid C-terminal truncation to enhance the solubility. The E. coli competent cell line BL21(DE3) was used for expression of the protein. Cultures were grown at 37° C. for ˜4 hours until the cultures reached an optical density of 2.0 at 600 nm. The cultures were cooled to 20° C. and induced with 1 mM IPTG. Fresh ampicillin was added to a final concentration of 50 μg/ml and the cells were grown overnight at 20° C.
Cell pellets (3L) were lysed for purification to yield 15-24 mgs of purified NS5B. The lysis buffer consisted of 20 mM Tris-HCl, pH 7.4, 500 mM NaCl, 0.5% triton X-100, 1 mM DTT, 1 mM EDTA, 20% glycerol, 0.5 mg/ml lysozyme, 10 mM MgCl2, 15 ug/ml deoxyribonuclease I, and Complete TM protease inhibitor tablets (Roche). After addition of the lysis buffer, frozen cell pellets were resuspended using a tissue homogenizer. To reduce the viscosity of the sample, aliquots of the lysate were sonicated on ice using a microtip attached to a Branson sonicator. The sonicated lysate was centrifuged at 100,000×g for 1 hr at 4° C. and filtered through a 0.2 μm filter unit (Corning).
The protein was purified using three sequential chromatography steps: Heparin sepharose CL-6B, polyU sepharose 4B, and Hitrap SP sepharose (Pharmacia). The chromatography buffers were identical to the lysis buffer but contained no lysozyme, deoxyribonuclease I, MgCl2 or protease inhibitor and the NaCl concentration of the buffer was adjusted according to the requirements for charging the protein onto the column. Each column was eluted with a NaCl gradient which varied in length from 5-50 column volumes depending on the column type. After the final chromatography step, the resulting purity of the enzyme is >90% based on SDS-PAGE analysis. The enzyme was aliquoted and stored at −80° C.
Standard HCV NS5B RdRp enzyme assay. HCV RdRp genotype 1b assays were run in a final volume of 60 μl in 96 well plates (Costar 3912). The assay buffer is composed of 20 mM Hepes, pH 7.5, 2.5 mM KCl, 2.5 mM MgCl2, 1 mM DTT, 1.6 U RNAse inhibitor (Promega N2515), 0.1 mg/ml BSA (Promega R3961), and 2% glycerol. All compounds were serially diluted (3-fold) in DMSO and diluted further in water such that the final concentration of DMSO in the assay was 2%. HCV RdRp genotype 1b enzyme was used at a final concentration of 28 nM. A polyA template was used at 6 nM, and a biotinylated oligo-dT12 primer was used at 180 nM final concentration. Template was obtained commercially (Amersham 27-4110). Biotinylated primer was prepared by Sigma Genosys. 3H-UTP was used at 0.6 μCi (0.29 μM total UTP). Reactions were initiated by the addition of enzyme, incubated at 30° C. for 60 min, and stopped by adding 25 μl of 50 mM EDTA containing SPA beads (4 μg/μl, Amersham RPNQ 0007). Plates were read on a Packard Top Count NXT after >1 hr incubation at room temperature.
Modified HCV NS5B RdRp enzyme assay. A modified enzyme assay was performed essentially as described for the standard enzyme assay except for the following: The biotinylated oligo dT12 primer was precaptured on streptavidin-coated SPA beads by mixing primer and beads in assay buffer and incubating at room temperature for one hour. Unbound primer was removed after centrifugation. The primer-bound beads were resuspended in 20 mM Hepes buffer, pH 7.5 and used in the assay at final concentrations of 20 nM primer and 0.67 μg/μl beads. Order of addition in the assay: enzyme (14 nM) was added to diluted compound followed by the addition of a mixture of template (0.2 nM), 3H-UTP (0.6 μCi, 0.29 μM), and primer-bound beads, to initiate the reaction; concentrations given are final. Reactions were allowed to proceed for 4 hours at 30° C.
IC50 values for compounds were determined using seven different [I]. […]

In assay [2] the test system is HCV replicon. Description: HCV replicon FRET / luciferase assay (NeoLuc). In kind it is cell-based, HCV genotype 1b. As to conditions: Hepatitis C virus, HCV replicon cells. From the text:
FRET Assay Preparation. To perform the HCV FRET screening assay, 96-well cell culture plates were used. The FRET peptide (Anaspec, Inc.) (Taliani et al., Anal. Biochem. 1996, 240, 60-67) contains a fluorescence donor, EDANS, near one end of the peptide and an acceptor, DABCYL, near the other end. The fluorescence of the peptide is quenched by […] resonance energy transfer (RET) between the donor and the acceptor, but as the NS3 protease cleaves the peptide the products are released from RET quenching and the fluorescence of the donor becomes apparent. The assay reagent was made as follows: 5× cell Luciferase cell culture lysis reagent from Promega (#E153A) diluted to 1× with dH2O, NaCl added to 150 mM final, the FRET peptide diluted to 20 μM final from a 2 mM stock.
To prepare plates, HCV replicon cells, with or without a Renilla luciferase reporter gene, were trypsinized and placed into each well of a 96-well plate with titrated test compounds added in columns 3 through 12; columns 1 and 2 contained a control compound (HCV protease inhibitor), and the bottom row contained cells without compound. The plates were then placed in a CO2 incubator at 37° C.
Assays. Subsequent to addition of the test compounds described above (FRET Assay Preparation), at various times the plate was removed and Alamar blue solution (Trek Diagnostics, #00-100) was added per well as a measure of cellular toxicity. After reading in a Cytoflour 4000 instrument (PE Biosystems), plates were rinsed with PBS and then used for FRET assay by the addition of 30 ul of the FRET peptide assay reagent described above (FRET Assay Preparation) per well. The plate was then placed into the Cytoflour 4000 instrument which had been set to 340 excite/490 emission, automatic mode for 20 cycles and the plate read in a kinetic mode. Typically, the signal to noise using an endpoint analysis after the reads was at least three-fold. Alternatively, after Alamar blue reading, plates were rinsed with PBS, 50 ul of DMEM (high glucose) without phenol red was added and plates were then used for luciferase assay using the Promega Dual-Glo Luciferase Assay System,
Compound analysis was deteiniined by quantification of the relative HCV replicon inhibition and the relative cytotoxicity values. To calculate cytoxicity values, the average Alamar Blue fluorescence signals from the control wells were set as 100% non-toxic. The individual signals in each of the compound test wells were then divided by the average control signal and multiplied by 100% to determine […]. To calculate the HCV replicon inhibition values, an average background value was obtained from the two wells containing the highest amount of HCV protease inhibitor at the end of the assay period. These numbers were similar to those obtained from naïve Huh-7 cells.
The background numbers were then subtracted from the average signal obtained from the control wells and this number was used as 100% activity. The individual signals in each of the compound test wells were then divided by the averaged control values after background subtraction and multiplied by 100% to determine percent activity. EC50 values for a protease inhibitor titration were calculated as the concentration which caused a 50% reduction in FRET or luciferase activity. The two numbers generated for the compound plate, percent cytoxicity and percent activity were used to determine compounds of interest for further analysis.
(In general: Replicon systems follow genome replication, usually without infectious particles.)

The mark [3] stands for this setting: genotype 1b, read-out: NeoLuc EC50, Table 1, genotype 1b.

A word on the IC50: it is the concentration at which inhibition is half-maximal. Read a low IC50 as greater potency in that assay. In general, EC50 refers to the concentration needed to bring the measured effect to its halfway point.

Each structure is given as a SMILES string. Where two headings read alike, the source gives them in different places. A value given as a limit tells only on which side of the number the result lay.

T1 sequence (Q9WMX2 2420-2992): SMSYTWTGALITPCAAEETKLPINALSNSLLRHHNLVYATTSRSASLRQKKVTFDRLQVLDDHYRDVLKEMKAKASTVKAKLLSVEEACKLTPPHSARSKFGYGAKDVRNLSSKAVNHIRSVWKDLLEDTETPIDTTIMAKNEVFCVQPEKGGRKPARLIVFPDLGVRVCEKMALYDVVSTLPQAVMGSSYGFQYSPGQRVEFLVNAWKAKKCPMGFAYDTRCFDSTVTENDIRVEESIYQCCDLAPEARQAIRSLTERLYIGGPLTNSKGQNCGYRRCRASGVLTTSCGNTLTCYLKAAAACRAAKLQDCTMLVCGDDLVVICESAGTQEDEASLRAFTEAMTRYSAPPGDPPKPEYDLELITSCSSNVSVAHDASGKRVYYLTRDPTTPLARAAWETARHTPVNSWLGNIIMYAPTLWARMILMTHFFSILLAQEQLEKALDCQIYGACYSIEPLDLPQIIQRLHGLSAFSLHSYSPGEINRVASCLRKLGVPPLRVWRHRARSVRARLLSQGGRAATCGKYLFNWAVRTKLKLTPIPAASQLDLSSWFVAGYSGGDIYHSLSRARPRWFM

With `COc1ccc2c(c1)C1CC1(C(=O)N1CC34COCC3(CN(C)C4)C1)Cn1c-2c(C2CCCCC2)c2ccc(C(=O)NS(=O)(=O)C(C)C)cc21` (stereo not shown), in assay [1] (Table 1), the IC50 was less than 2.3 nM. Also, the EC50 in assay [2] (setting [3]) fell in the range of 1.9 to 500 nM. For `CNC(=O)N1CC23COCC2(C1)CN(C(=O)[C@]12C[C@H]1c1cc(OC)ccc1-c1c(C4CCCCC4)c4ccc(C(=O)NS(=O)(=O)C(C)C)cc4n1C2)C3` (stereo partly shown), in that order: 1.9 to 500 nM and 1.9 to 500 nM. In assay [1] (Table 2), `CCOCCN1CC23COCC2(C1)CN(C(=O)[C@]12C[C@H]1c1cc(OC)ccc1-c1c(C4CCCCC4)c4ccc(C(=O)NS(=O)(=O)C(C)C)cc4n1C2)C3` (stereo partly shown) [drawing 112] yielded an IC50 of 1.9 nM. Further, the EC50 in assay [2] (Table 2, read-out: NeoLuc EC50) was determined as 7.69 nM. In the case of `COc1ccc2c(c1)[C@@H]1C[C@]1(C(=O)N1CC34COCC3(C1)CN(C1CC1)C4)Cn1c-2c(C2CCCCC2)c2ccc(C(=O)NS(=O)(=O)N(C)C)cc21` (stereo partly shown), the IC50 in assay [1] (Table 1) lay in the range of 1.9 to 500 nM. Moreover, the EC50 in assay [2] (setting [3]) fell in the range of 1.9 to 500 nM.

With `C=C(C)S(=O)(=O)NC(=O)c1ccc2c(C3CCCCC3)c3n(c2c1)C[C@@]1(C(=O)N2CC45CNCC4(COC5)C2)C[C@H]1c1cc(OC)ccc1-3` (stereo partly shown), the IC50 in assay [1] (Table 1) is less than 2.3 nM. The EC50 in assay [2] (setting [3]) is 1.9 to 500 nM.

`COc1ccc2c(c1)C1CC1(C(=O)N1CC34CNCC3(COC4)C1)Cn1c-2c(C2CCCCC2)c2ccc(C(=O)NS(=O)(=O)C(C)C)cc21` (stereo not shown) had an IC50 in assay [1] (Table 1) of 1.9 to 500 nM. Also, in assay [2] (setting [3]), the EC50 lay in the range of 1.9 to 500 nM. Take `C=C(C)S(=O)(=O)NC(=O)c1ccc2c(C3CCCCC3)c3n(c2c1)C[C@@]1(C(=O)N2C[C@]4(COC)CN(C)C[C@]4(COC)C2)C[C@H]1c1cc(OC)ccc1-3`: in assay [1] (Table 1), the IC50 was less than 20 nM. The EC50 in assay [2] (setting [3]) is 1.9 to 500 nM.

Compound `COc1ccc2c(c1)[C@@H]1C[C@]1(C(=O)N1CC34CCC3(C1)CN(C1CC1)C4)Cn1c-2c(C2CCCCC2)c2ccc(C(=O)NS(=O)(=O)C(C)C)cc21` (stereo partly shown) had an IC50 in assay [1] (Table 1) of 1.9 to 500 nM. Besides, the EC50 in assay [2] (setting [3]) was in the range of 1.9 to 500 nM. In assay [1] (Table 1), `C=C(/C=C1\C(=C)c2c(C3CCCCC3)c3ccc(C(=O)NS(=O)(=O)C(C)C)cc3n2CC2(C(=O)N3CC45CNCC4(CNC5)C3)CC12)OC` (stereo not shown) registered a concentration for half-maximal inhibition (IC50) of less than 2.3 nM. The EC50 in assay [2] (setting [3]) was more than 1000 nM. For `COc1ccc2c(c1)C1CC1(C(=O)N1CC34CN(C)CC3(CN(C)C4)C1)Cn1c-2c(C2CCCCC2)c2ccc(C(=O)NS(=O)(=O)C(C)C)cc21` (stereo not shown), in that order: less than 2.3 nM and 1.9 to 500 nM. For `CNC(=O)N1CC23COCC2(C1)CN(C(=O)[C@]12C[C@H]1c1cc(OC)ccc1-c1c(C4CCCCC4)c4ccc(C(=O)NS(=O)(=O)N(C)C)cc4n1C2)C3` (stereo partly shown), in that order: 1.9 to 500 nM and 1.9 to 500 nM. For `COc1ccc2c(c1)C1CC1(C(=O)N1CC34COCC3(CN(C)C4)C1)Cn1c-2c(C2CCCCC2)c2ccc(C(=O)NS(=O)(=O)CC(C)C)cc21` (stereo not shown), in that order: 1.9 to 500 nM and 1.9 to 500 nM. In assay [1] (Table 1), `COC(=O)N1CC23COCC2(C1)CN(C(=O)[C@]12C[C@H]1c1cc(OC)ccc1-c1c(C4CCCCC4)c4ccc(C(=O)NS(=O)(=O)N(C)C)cc4n1C2)C3` (stereo partly shown) gave an IC50 of more than 1000 nM. As to `COc1ccc2c(c1)C1CC1(C(=O)N1CC34CNCC3(COC4)C1)Cn1c-2c(C2CCCCC2)c2ccc(C(=O)NS(=O)(=O)CC(C)C)cc21` (stereo not shown), the IC50 in assay [1] (Table 1) was 1.9 to 500 nM. In addition, the EC50 in assay [2] (setting [3]) lay in the range of 1.9 to 500 nM.

Turning to `CCN1CC23COCC2(C1)CN(C(=O)C12CC1c1cc(OC)ccc1-c1c(C4CCCCC4)c4ccc(C(=O)NS(=O)(=O)C(C)C)cc4n1C2)C3` (stereo not shown), the IC50 in assay [1] (Table 1) fell in the range of 1.9 to 500 nM. In addition, the EC50 in assay [2] (setting [3]) was in the range of 1.9 to 500 nM.

`COC[C@]12CNC[C@@]1(COC)CN(C(=O)C13CC1c1cc(OC)ccc1-c1c(C4CCCCC4)c4ccc(C(=O)NS(=O)(=O)C(C)C)cc4n1C3)C2` (stereo partly shown): the EC50 in assay [2] (setting [3]) fell in the range of 1.9 to 500 nM.

Consider `CCOCCN1CC23COCC2(C1)CN(C(=O)[C@]12C[C@H]1c1cc(OC)ccc1-c1c(C4CCCCC4)c4ccc(C(=O)NS(=O)(=O)C(C)C)cc4n1C2)C3` (stereo partly shown) [drawing 101], for which, in assay [1] (Table 1), the IC50 fell in the range of 1.9 to 500 nM. Moreover, the EC50 in assay [2] (setting [3]) was in the range of 1.9 to 500 nM. Compound `COC[C@@]12CN(C)C[C@]1(COC)CN(C(=O)C13CC1c1cc(OC)ccc1-c1c(C4CCCCC4)c4ccc(C(=O)NS(=O)(=O)C(C)C)cc4n1C3)C2` (stereo partly shown) came in with an IC50 in assay [1] (Table 1) of 1.9 to 500 nM. Further, the EC50 in assay [2] (setting [3]) is 1.9 to 500 nM. `COC(=O)N1CC23COCC2(C1)CN(C(=O)[C@]12C[C@H]1c1cc(OC)ccc1-c1c(C4CCCCC4)c4ccc(C(=O)NS(=O)(=O)C(C)C)cc4n1C2)C3` (stereo partly shown) displayed an IC50 in assay [1] (Table 1) of 1.9 to 500 nM. `C=C(C)S(=O)(=O)NC(=O)c1ccc2c(C3CCCCC3)c3n(c2c1)C[C@@]1(C(=O)N2C[C@@]4(COC)CNC[C@@]4(COC)C2)C[C@H]1c1cc(OC)ccc1-3` returned an IC50 in assay [1] (Table 1) of less than 20 nM. Moreover, the EC50 in assay [2] (setting [3]) lay in the range of 500 to 1000 nM.
